# Source: patent US20240293430A1, “WITHAFERIN A AND IMMUNE CHECKPOINT BLOCKER COMBINATION THERAPIES” (University of South Florida, priority 2023, published 2024)
# How the values were obtained:
# [1] = system: PD-L1 expression in LLC, H1650, and A549 cell lines; test: PD-L1 expression in NSCLC cell lines (flow cytometry, qRT-PCR, western blot); type: cell-based, mouse (LLC), human (H1650
# Description: FIGS. 3A-3F depict that WFA upregulates PD-L1 surface expression in NSCLC cell lines. Cells were treated with WFA for 48 h. (FIGS. 3A, 3C, 3E) PD-L1 surface expression determined using flow cytometry LLC (FIG. 3A), H1650 (FIG. 3C), and A549 (FIG. 3E). (FIGS. 3B, 3D, 3F) PD-L1 expression was measured using qRT-PCR LLC (FIG. 3B), H1650 (FIG. 3D), A549 (FIG. 3F). PCR experiments were repeated twice and the mean±SEM of the technical replicates are represented. For the rest, the means of two independent experiments ±SEM are shown, and statistical significance was calculated using one-way ANOVA and a Fisher LSD post hoc test where * is p<0.05, ** is p<0.01, and **** is p <0.0001.
# FIGS. 8A-8G depict that WFA induced ICD and PD-L1 upregulation in colorectal cancer cell lines. WFA increased the levels of ecto-CRT in the murine colorectal cancer cell line (FIG. 8A) MC-38 and human cell line (FIG. 8B) HCT-116. WFA increased the expression of PD-L1 in both (FIG. 8C) MC-38 and (FIG. 8D) HCT-116 cells. […] H1650 cells (at a higher density) were treated with a higher concentration of WFA (2 and 4 μM) to facilitate cell collection and protein isolation. The band density was quantified using Image J software and normalized to the housekeeping protein. The fold change from untreated control was averaged from two independent experiments ±SEM and one-way ANOVA was used to calculate the statistical significance. A Fisher LSD post hoc test was performed to compare the treatments to the control in (FIG. 8E) LLC, (FIG. 8F) H1650, (FIG. 8G) A549 cells. * p<0.05, ** p<0.01, *** p<0.001, **** p<0.0001. […]
# Total cellular RNA was isolated from collected cell pellets using TRIzol reagent (Invitrogen, Waltham, MA, USA) and then quantified using the 2000 Nanodrop spectrophotometer (Thermo Fisher Scientific, Waltham, MA, USA). cDNA synthesis was performed using the Verso cDNA synthesis kit (Thermo Fisher Scientific, Waltham, MA, USA). qPCR was then performed using Forget-Me-Not EvaGreen qPCR Master Mix (Biotium, Fremont, CA, USA) in a Bio-Rad CFX384 thermocycler according to the manufacturer's instructions. […]
# [2] = system: tumor-immune infiltration and ecto-CRT in LLC tumors; test: LLC syngeneic mouse model, flow cytometry of collected tumors; type: in vivo, C57BL/6 mice
# Description: FIGS. 5A-5G depict that WFA sensitizes flank tumors to α-PD-L1 therapy and targets immunosuppressive MDSCs and T-regs. (FIG. 5A) Establishment of LLC flank tumors and treatment schedule. (FIG. 5B) Tumor volume measurement in mm^3 and tumor weight at the endpoint of the experiment. (FIG. 5C) Change in the levels of ecto-CRT in tumors was measured using flow cytometry. (FIGS. 5D-5G) Flow cytometry was used to determine the change in immune cell infiltration in collected tumors. […] Moreover, WFA reduced the immunosuppressive T regs (FIG. 5F) and CD11b+Gr1+MDSC (FIG. 5G) populations. The means of two independent experiments ±SEM are shown, and the statistical significance was calculated using one-way ANOVA and a Fisher LSD post hoc test where * and #represent p<0.05 and ** and ##represent p<0.01. * Symbols refer to the difference between the vehicle control and WFA, while #refers to comparisons between the vehicle control and WFA+α-PD-L1 combination.
# FIGS. 12A-12D depicts the gating strategy used to determine tumor immune infiltration in LLC tumors and spleens. […] Out of the CD11b population, we gated the monocytic CD11b+Ly6C+ and CD11b+Ly6G+granulocytic MDSCs. (FIG. 12B) For the T-cell panel, the total CD-3 population was gated out of the live single cells. Consequently, CD4, CD25+CD4+Tregs and CD8 population were gated out of CD-3 cells based on the FMO controls. (FIGS. 12C-12D) Mice body weights were measured at the endpoint of the experiment and represented as mean±SEM. The means were compared to the vehicle control using Fisher LSD post-hoc test. * p<0.05.
# In vitro WFA-treated or control cells were collected using Accutase cell detachment solution and stained with FACS-diluted (PBS, 10% FBS, 2 mMEDTA) pre-titrated fluorophore conjugated or primary unconjugated antibody solutions (Table 1) for 30 min on ice in the dark. In case of fluorophore-conjugated antibodies, samples are washed and immediately acquired after adding DAPI viability dye, while samples stained with unconjugated antibodies are incubated with the proper secondary fluorophore-conjugated antibody for 30 min before washing and acquisition. For in vivo experiments, the processed tumor or spleen single cell suspensions were used for surface staining with the pre-titrated antibodies (Table 1) for 30 min on ice in the dark. To exclude the dead cells from the analysis, a fixable live/dead Zombie Aqua viability kit (Biolegend, San Diego, CA, USA) was used according to the manufacturer's protocol. Samples were then fixed using 2% PFA for 15 min then washed and stored at 4° C. before acquisition. Samples were acquired using a Becton Dickenson Biosciences (BD, Franklin Lakes, NJ, USA) FACS Canto II or LSR II system at the University of South Florida COM Fred Wright Jr Flow Cytometry Core.
# C57BL/6 mice were purchased from the Jackson Laboratory (Bar Harbor, ME, USA) and acclimated for a week. To establish the LLC syngeneic tumors, C57BL/6 mice were injected with a half million cells on the right flank and monitored until tumors were first palpable (2-3 mm diameter). […] Treatments were administered every other day with a total of five treatments and mice body weights and tumor volumes were monitored using a caliper (Fisher Scientific, Waltham, MA, USA, 15-077-957). Tumor volumes (mm^3) were calculated using the equation ([…]), where the length is defined as the bigger tumor dimension. […]
compound,measurement,setting,value
"CC1=C(CO)C(=O)O[C@@H]([C@@H](C)[C@H]2CC[C@H]3[C@@H]4C[C@H]5O[C@]56[C@@H](O)C=CC(=O)[C@]6(C)[C@H]4CC[C@]23C)C1 [WFA, Withaferin A]",PD-L1 surface expression,"[1]; flow cytometry, 48 h, LLC, H1650, A549",consistently increased
same,PD-L1 expression (mRNA),[1]; qRT-PCR,induced
same,PD-L1 expression (protein),[1]; western blotting,induced
same,CD11b+Gr1+ MDSCs in the tumor,[2],reducing
same,CD25+CD4+ T-regs in the tumor,[2],reducing
same,levels of ecto-CRT in vivo,[2]; vs control mice,increased
same,CD8 T-cell infiltration,[2]; vs vehicle control,increasing
same,T-cell activation markers CD69 and 41BB,[2]; vs vehicle control,not significant
